Structures are written as SMILES.

Here are results for 41 molecules from US8415378B2, “Isoxazol-3(2H)-one analogs as therapeutic agents” (AstraZeneca AB, priority 2009, dated 2013).

T1 sequence (P00747 20-810 limits assumed): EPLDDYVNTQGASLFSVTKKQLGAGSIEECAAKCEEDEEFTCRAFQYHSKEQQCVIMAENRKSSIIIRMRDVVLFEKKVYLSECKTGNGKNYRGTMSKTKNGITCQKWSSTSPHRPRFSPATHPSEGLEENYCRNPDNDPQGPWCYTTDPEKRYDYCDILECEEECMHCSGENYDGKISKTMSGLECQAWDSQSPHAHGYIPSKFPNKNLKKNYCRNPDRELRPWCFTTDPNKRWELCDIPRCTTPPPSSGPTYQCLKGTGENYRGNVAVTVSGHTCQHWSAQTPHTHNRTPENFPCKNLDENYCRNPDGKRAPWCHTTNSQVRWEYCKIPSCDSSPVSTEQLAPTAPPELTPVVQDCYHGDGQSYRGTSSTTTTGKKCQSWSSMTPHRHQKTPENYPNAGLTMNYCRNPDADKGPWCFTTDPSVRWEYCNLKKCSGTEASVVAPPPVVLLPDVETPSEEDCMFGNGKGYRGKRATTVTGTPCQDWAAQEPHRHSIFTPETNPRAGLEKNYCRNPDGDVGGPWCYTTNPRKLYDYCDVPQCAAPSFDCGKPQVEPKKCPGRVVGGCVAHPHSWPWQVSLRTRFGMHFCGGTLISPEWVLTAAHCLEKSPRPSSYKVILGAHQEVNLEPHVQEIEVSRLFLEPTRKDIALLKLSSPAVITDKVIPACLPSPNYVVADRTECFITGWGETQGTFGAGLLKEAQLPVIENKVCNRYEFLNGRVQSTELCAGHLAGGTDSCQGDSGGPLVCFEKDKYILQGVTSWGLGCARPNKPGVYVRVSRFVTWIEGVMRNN

The assay addresses T1, human Glu-plasminogen (Homo sapiens, UniProt P00747).
T1 construct: human Glu-plasminogen; purchased Chromogenix, Italy
The assay is described as follows: Clot-lysis buffer assay. Type of assay: biochemical. Here is the method: The assay method used for evaluating biological activity of the compounds according to the invention was Clot-lysis buffer assay.
Tested substance were added to the reaction mixture in 10% DMSO. Reaction was started by the addition of thrombin.
Measured according to the Clot-lysis buffer assay described above.
In the case of `Cc1cc([C@H]2C[C@@H](c3cc(=O)[nH]o3)CCN2)ccc1C(F)(F)F` [Example 67, 5-((2R,4S)-2-(3-Methyl-4-(trifluoromethyl)phenyl)piperidin-4-yl)isoxazol-3(2H)-one], the IC50 (in general, the concentration needed to halve the response being measured) came to 1.3 µM. In other words, the single-digit micromolar range.
The molecule `O=c1cc([C@H]2CCN[C@@H](Cc3cc(F)ccc3F)C2)o[nH]1` [Example 124, 5-((2R,4S)-2-(2,5-Difluorobenzyl)piperidin-4-yl)isoxazol-3(2H)-one] had an IC50 of 1.2 µM.
As to `O=c1cc([C@@H]2CCN[C@H](c3cccc(C(F)(F)F)c3)C2)o[nH]1` [Example 31, 5-((2S,4R)-2-(3-(Trifluoromethyl)phenyl)piperidin-4-yl)isoxazol-3(2H)-one], the concentration for half-maximal inhibition (IC50) turned out to be 33.1 µM.
For `O=c1cc([C@H]2CCN[C@@H](c3ccccc3)C2)o[nH]1` [Example 77, 5-((2R,4S)-2-Phenylpiperidin-4-yl)isoxazol-3(2H)-one] the value was 8 µM; for `O=c1cc([C@@H]2CCN[C@H](c3ccc(C(F)(F)F)cc3)C2)o[nH]1` [Example 34, 5-((2S,4R)-2-(4-(Trifluoromethyl)phenyl)piperidin-4-yl)isoxazol-3(2H)-one], 150 µM; for `O=c1cc([C@H]2CCN[C@H](c3ccccc3)C2)o[nH]1` [Example 78], 64.2 µM.
For `O=c1cc([C@@H]2CCN[C@@H](c3ccc(Cl)cc3)C2)o[nH]1` (relative stereo) [Example 29, 5-(Trans-2-(4-chlorophenyl)piperidin-4-yl)isoxazol-3(2H)-one], the IC50 was 24 µM.
Take `O=c1cc([C@@H]2CCN[C@@H](Cc3cc(F)ccc3F)C2)o[nH]1` (relative stereo) [Example 126, 5-(Trans-2-(2,5-difluorobenzyl)piperidin-4-yl)isoxazol-3(2H)-one]: inhibition was half-maximal at 3.6 µM (IC50).
To `CS(=O)(=O)c1ccc(C2CC(c3cc(=O)[nH]o3)CCN2)cc1` (stereo not drawn) [Example 39, 5-((Trans-2-(4-(methylsulfonyl)phenyl)piperidin-4-yl)isoxazol-3(2H)-one] belongs 97.3 µM; to `CC(C)(C)c1cc(C[C@@H]2C[C@H](c3cc(=O)[nH]o3)CCN2)cc(C(C)(C)C)c1` [Example 147, 5-((2S,4R)-2-(3,5-Di-tert-butylbenzyl)piperidin-4-yl)isoxazol-3(2H)-one], 44.6 µM; to `O=c1cc([C@@H]2CCN[C@H](c3cc(F)c(F)c(F)c3)C2)o[nH]1` [Example 61, 5-((2S,4R)-2-(3,4,5-Trifluorophenyl)piperidin-4-yl)isoxazol-3(2H)-one], 858 µM.
Molecule `O=c1cc([C@@H]2CCN[C@@H](c3ccc(C(F)(F)F)cc3)C2)o[nH]1` (relative stereo) [Example 35, 5-(Trans-2-(4-(trifluoromethyl)phenyl)piperidin-4-yl)isoxazol-3(2H)-one] had an IC50 of 14.4 µM.
Turning to `O=c1cc([C@@H]2CCN[C@H](Cc3cccc(C(F)(F)F)c3)C2)o[nH]1` [Example 108, 5-((2S,4R)-2-(3-(Trifluoromethyl)benzyl)piperidin-4-yl)isoxazol-3(2H)-one], the IC50 came to 70.5 µM.
For `O=c1cc([C@@H]2CCN[C@@H](c3ccc(Cl)c(F)c3)C2)o[nH]1` (relative stereo) [Example 50, 5-(Trans-2-(4-chloro-3-fluorophenyl)piperidin-4-yl)isoxazol-3(2H)-one], the IC50 turned out to be 5.3 µM.
Molecule `CS(=O)(=O)c1ccc([C@H]2C[C@@H](c3cc(=O)[nH]o3)CCN2)cc1` [Example 38, 5-((2R,4S)-2-(4-(Methylsulfonyl)phenyl)piperidin-4-yl)isoxazol-3(2H)-one] returned a concentration for half-maximal inhibition (IC50) of 1.5 µM. Against the preceding molecule, the IC50 is about 3.5-fold lower.
`CS(=O)(=O)c1ccc(C[C@H]2C[C@H](c3cc(=O)[nH]o3)CCN2)cc1` (relative stereo) [Example 119, 5-(Trans-2-(4-(methylsulfonyl)benzyl)piperidin-4-yl)isoxazol-3(2H)-one] gave an IC50 of 10.7 µM. Against the preceding molecule, the IC50 is about 7.1-fold higher.
In turn, `O=c1cc([C@@H]2CCN[C@@H](CC3CCC(F)(F)CC3)C2)o[nH]1` (relative stereo) [Example 91, 5-(Trans-2-((4,4-difluorocyclohexyl)methyl)piperidin-4-yl)isoxazol-3(2H)-one] yielded a half-inhibitory concentration (IC50) of 5.9 µM.
To `O=c1cc([C@@H]2CCN[C@H](c3ccc(Cl)cc3Cl)C2)o[nH]1` [Example 52, 5-((2S,4R)-2-(2,4-Dichlorophenyl)piperidin-4-yl)isoxazol-3(2H)-one] belongs 1940 µM; to `O=c1cc([C@@H]2CCN[C@@H](COC3CCCCC3)C2)o[nH]1` (relative stereo) [Example 86, 5-(Trans-2-(cyclohexyloxymethyl)piperidin-4-yl)isoxazol-3(2H)-one], 15.6 µM.
Molecule `O=c1cc([C@H]2CCN[C@H](C3CCCCC3)C2)o[nH]1` [Example 80, 5-((2S,4S)-2-Cyclohexylpiperidin-4-yl)isoxazol-3(2H)-one] had an IC50 of 44 µM.
As to `O=c1cc([C@H]2CCN[C@@H](c3ccc(Cl)cc3)C2)o[nH]1` [Example 27, 5-((2R,4S)-2-(4-Chlorophenyl)piperidin-4-yl)isoxazol-3(2H)-one], the IC50 is 1.5 µM.
For `O=c1cc([C@H]2CCN[C@@H](c3ccc(C(F)(F)F)cc3F)C2)o[nH]1` [Example 73, 5-((2R,4S)-2-(2-Fluoro-4-(trifluoromethyl)phenyl)piperidin-4-yl)isoxazol-3(2H)-one] the value was 1.54 µM; for `O=c1cc([C@H]2CCN[C@@H](c3ccc(OC(F)(F)F)cc3F)C2)o[nH]1` [Example 58, 5-((2R,4S)-2-(2-Fluoro-4-(trifluoromethoxy)phenyl)piperidin-4-yl)isoxazol-3(2H)-one], 2.1 µM; for `O=c1cc([C@H]2CCN[C@@H](c3ccc(C(F)(F)F)c(F)c3)C2)o[nH]1` [Example 75, 5-((2R,4S)-2-(3-Fluoro-4-(trifluoromethyl)phenyl)piperidin-4-yl)isoxazol-3(2H)-one], 3.1 µM.
On to `CC(C)(C)c1cccc([C@H]2C[C@@H](c3cc(=O)[nH]o3)CCN2)c1` [Example 36, 5-((2R,4S)-2-(3-tert-Butylphenyl)piperidin-4-yl)isoxazol-3(2H)-one], for which the midpoint of inhibition, the IC50, lay at 1.9 µM.
On to `O=c1cc([C@H]2CCN[C@@H](c3ccc(F)cc3F)C2)o[nH]1` [Example 44, 5-((2R,4S)-2-(2,4-Difluorophenyl)piperidin-4-yl)isoxazol-3(2H)-one], for which the IC50 was 2.3 µM.
Regarding `CC(C)(C)c1ccc([C@H]2C[C@H](c3cc(=O)[nH]o3)CCN2)cc1` (relative stereo) [Example 37, 5-(Trans-2-(4-tert-butylphenyl)piperidin-4-yl)isoxazol-3(2H)-one], 228 µM corresponded to half-maximal inhibition (IC50).
With `O=c1cc([C@H]2CCN[C@@H](c3ccc(Cl)c(F)c3)C2)o[nH]1` [Example 49, 5-((2R,4S)-2-(4-Chloro-3-fluorophenyl)piperidin-4-yl)isoxazol-3(2H)-one], the IC50 amounted to 2 µM.
Molecule `CC(C)(C)c1cc(C[C@H]2C[C@@H](c3cc(=O)[nH]o3)CCN2)cc(C(C)(C)C)c1` [Example 146, 5-((2R,4S)-2-(3,5-Di-tert-butylbenzyl)piperidin-4-yl)isoxazol-3(2H)-one] registered an IC50 of 6.6 µM.
Consider `O=c1cc([C@@H]2CCN[C@@H](c3cccc(C(F)(F)F)c3)C2)o[nH]1` (relative stereo) [Example 32, 5-(Trans-2-(3-(trifluoromethyl)phenyl)piperidin-4-yl)isoxazol-3(2H)-one], for which the midpoint of inhibition, the IC50, lay at 23.6 µM.
To `O=c1cc([C@H]2CCN[C@@H](c3ccc(Cl)cc3F)C2)o[nH]1` [Example 45, 5-((2R,4S)-2-(4-Chloro-2-fluorophenyl)piperidin-4-yl)isoxazol-3(2H)-one] belongs 2.35 µM; to `O=c1cc([C@@H]2CCN[C@@H](c3ccc(OC(F)(F)F)cc3F)C2)o[nH]1` (relative stereo) [Example 59, 5-(Trans-2-(2-fluoro-4-(trifluoromethoxy)phenyl)piperidin-4-yl)isoxazol-3(2H)-one], 70.7 µM; to `O=c1cc([C@H]2CCN[C@@H](C3CCCCC3)C2)o[nH]1` [Example 79, 5-((2R,4S)-2-Cyclohexylpiperidin-4-yl)isoxazol-3(2H)-one], 3.3 µM.
To `O=c1cc([C@H]2CCN[C@H](Cc3ccc(F)c(F)c3)C2)o[nH]1` [Example 122, 5-((2S,4S)-2-(3,4-Difluorobenzyl)piperidin-4-yl)isoxazol-3(2H)-one] belongs 4.4 µM.
For `O=c1cc([C@@H]2CCN[C@@H](Cc3cc(F)c(F)c(F)c3)C2)o[nH]1` (relative stereo) [Example 145, 5-(Trans-2-(3,4,5-trifluorobenzyl)piperidin-4-yl)isoxazol-3(2H)-one] the value was 4.3 µM.
Molecule `O=c1cc([C@H]2CCN[C@@H](c3ccc(F)cc3Cl)C2)o[nH]1` [Example 47, 5-((2R,4S)-2-(2-Chloro-4-fluorophenyl)piperidin-4-yl)isoxazol-3(2H)-one] returned an IC50 of 1.4 µM.
`O=c1cc([C@@H]2CCN[C@@H](Cc3ccccc3C(F)(F)F)C2)o[nH]1` (relative stereo) [Example 112, 5-(Trans-2-(2-(trifluoromethyl)benzyl)piperidin-4-yl)isoxazol-3(2H)-one] registered an IC50 of 5.5 µM.
Regarding `O=c1cc([C@H]2CCN[C@@H](Cc3ccc(F)c(F)c3)C2)o[nH]1` [Example 120, 5-((2R,4S)-2-(3,4-Difluorobenzyl)piperidin-4-yl)isoxazol-3(2H)-one], the midpoint of inhibition, the IC50, lay at 0.89 µM.
As for `O=c1cc([C@H]2CCN[C@@H](Cc3cc(F)cc(F)c3)C2)o[nH]1` [Example 130, 5-((2R,4S)-2-(3,5-Difluorobenzyl)piperidin-4-yl)isoxazol-3(2H)-one], the IC50 was 1.1 µM. This IC50 and that of the molecule before are within 1.5-fold of each other.
For `O=c1cc([C@@H]2CCN[C@@H](c3ccc(F)c(F)c3)C2)o[nH]1` (relative stereo) [Example 24, 5-(Trans-2-(3,4-difluorophenyl)piperidin-4-yl)isoxazol-3(2H)-one] the value was 42.8 µM.
`O=c1cc([C@@H]2CCN[C@H](Cc3ccc(F)c(F)c3)C2)o[nH]1` [Example 121, 5-((2S,4R)-2-(3,4-Difluorobenzyl)piperidin-4-yl)isoxazol-3(2H)-one] came in with an IC50 of 120 µM.
